Biological target: T1, human P2X4 (Homo sapiens, UniProt Q99571)
T1 sequence (Q99571 1-388): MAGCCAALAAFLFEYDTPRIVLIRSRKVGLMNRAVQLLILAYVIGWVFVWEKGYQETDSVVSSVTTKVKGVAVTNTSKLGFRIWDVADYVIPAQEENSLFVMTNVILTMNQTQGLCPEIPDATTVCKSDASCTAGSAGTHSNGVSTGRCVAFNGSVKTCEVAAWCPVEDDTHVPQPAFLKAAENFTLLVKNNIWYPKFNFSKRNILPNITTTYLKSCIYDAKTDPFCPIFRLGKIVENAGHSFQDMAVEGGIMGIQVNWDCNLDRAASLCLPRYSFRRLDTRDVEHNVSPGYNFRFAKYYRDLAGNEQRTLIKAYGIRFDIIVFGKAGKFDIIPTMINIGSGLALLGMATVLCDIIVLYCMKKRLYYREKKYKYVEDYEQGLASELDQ
Experiment: Human P2X4 HEK Cell FLIPR Assay
Type: cell-based
Settings: agonist Bz-ATP at EC80; for Emax: HEK293, HEK293 cells, percentage of maximal inhibition, read-out: Human P2X4 HEK Cells (FLIPR Assay) avg Efficacy [%]; for IC50: HEK293 cells, individual values listed where some fall outside detection range
In short: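 HEK293 cells stably expressing human P2X4, Fluo8-AM loaded 30 min at 37° C, then compound 30 min at room temperature (0.5% DMSO, pH 7.4 buffer with 1.8 mM CaCl2). Bz-ATP at its daily-determined EC80 added; calcium fluorescence read over 120 sec; IC50 from peak RFU normalized to agonist control, triplicates.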

SMILES	Emax [%]	IC50 [nM]
NS(=O)(=O)c1cc(NC(=O)Cc2ccccc2OC(F)(F)F)ccc1-n1cc(C(F)(F)F)cn1 [Example 129, N-{3-Sulfamoyl-4-[4-(trifluoromethyl)-1H-pyrazol-1-yl]phenyl}-2-[2-(trifluoro-methoxy)phenyl]acetamide]	89	157
NS(=O)(=O)c1cc(NC(=O)Cc2ccccc2Cl)ccc1-n1cc(Cl)cn1 [Example 25, 2-(2-Chlorophenyl)-N-[4-(4-chloro-1H-pyrazol-1-yl)-3-sulfamoylphenyl]acetamide]	93	
CC(C)(O)c1cc(F)cc(-c2ccc(NC(=O)Cc3ccccc3F)cc2S(N)(=O)=O)c1 [Example 347, N-[3′-Fluoro-5′-(2-hydroxypropan-2-yl)-2-sulfamoylbiphenyl-4-yl]-2-(2-fluorophenyl)acetamide]	89	85
NS(=O)(=O)c1cc(NC(=O)Cc2ccccc2Cl)ccc1-c1cnn(CCOC(F)(F)F)c1 [Example 279, 2-(2-Chlorophenyl)-N-(3-sulfamoyl-4-{1-[2-(trifluoromethoxy)ethyl]-1H-pyrazol-4-yl}phenyl)acetamide]	96	61
NS(=O)(=O)c1cc(NC(=O)Cc2cccc(F)c2Cl)ccc1-c1cnn(C2CC2)c1 [Example 337, 2-(2-Chloro-3-fluorophenyl)-N-[4-(1-cyclopropyl-1H-pyrazol-4-yl)-3-sulfamoylphenyl]acetamide]	96	30
NS(=O)(=O)c1cc(NC(=O)Cc2c(F)cccc2Cl)ccc1-n1cc(Cl)cn1 [Example 77, 2-(2-Chloro-6-fluorophenyl)-N-[4-(4-chloro-1H-pyrazol-1-yl)-3-sulfamoylphenyl]-acetamide]	82	71
NS(=O)(=O)c1cc(NC(=O)Cc2ccccc2C(F)(F)F)ccc1-n1cc(Br)cn1 [Example 64, N-[4-(4-Bromo-1H-pyrazol-1-yl)-3-sulfamoylphenyl]-2-[2-(trifluoromethyl)-phenyl]acetamide]	83	104
NS(=O)(=O)c1cc(NC(=O)Cc2ccccc2OC(F)(F)F)ccc1-n1cc(F)cn1 [Example 160, N-[4-(4-Fluoro-1H-pyrazol-1-yl)-3-sulfamoylphenyl]-2-[2-(trifluoromethoxy)phenyl]-acetamide]	89	58
N#Cc1cnn(-c2ccc(NC(=O)Cc3cccc(Cl)c3)cc2S(N)(=O)=O)c1 [Example 191, 2-(3-Chlorophenyl)-N-[4-(4-cyano-1H-pyrazol-1-yl)-3-sulfamoylphenyl]acetamide]	76	180
NS(=O)(=O)c1cc(NC(=O)Cc2ccccc2Cl)ccc1-n1cccn1 [Example 544, 2-(2-Chlorophenyl)-N-[4-(1H-pyrazol-1-yl)-3-sulfamoylphenyl]acetamide]	85	1
N#Cc1cnn(-c2ccc(NC(=O)Cc3cc(F)c(F)cc3Cl)cc2S(N)(=O)=O)c1 [Example 205, 2-(2-Chloro-4,5-difluorophenyl)-N-[4-(4-cyano-1H-pyrazol-1-yl)-3-sulfamoylphenyl]-acetamide]	89	73
COc1ccccc1CC(=O)Nc1ccc(-n2cc(C#N)cn2)c(S(N)(=O)=O)c1 [Example 182, N-[4-(4-Cyano-1H-pyrazol-1-yl)-3-sulfamoylphenyl]-2-(2-methoxyphenyl)acetamide]	89	161
NS(=O)(=O)c1cc(NC(=O)Cc2c(F)ccc(F)c2Cl)ccc1-n1cc(Cl)cn1 [Example 96, 2-(2-Chloro-3,6-difluorophenyl)-N-[4-(4-chloro-1H-pyrazol-1-yl)-3-sulfamoylphenyl]-acetamide]	83	233
CC(C(=O)Nc1cnn(-c2ccc(NC(=O)Cc3ccccc3Cl)cc2S(N)(=O)=O)c1)C(F)(F)F (racemic) [Example 508, N-[1-(4-{[(2-Chlorophenyl)acetyl]amino}-2-sulfamoylphenyl)-1H-pyrazol-4-yl]-3,3,3-trifluoro-2-methylpropanamide]	63	172
NS(=O)(=O)c1cc(NC(=O)Cc2ccccc2Cl)ccc1-c1noc(C(F)(F)F)n1 [Example 261, 2-(2-Chlorophenyl)-N-{3-sulfamoyl-4-[5-(trifluoromethyl)-1,2,4-oxadiazol-3-yl]phenyl}acetamide]	81	111
CN(C(=O)Cc1ccccc1Cl)c1ccc(-n2cc(C(F)(F)F)cn2)c(S(N)(=O)=O)c1 [Example 240, 2-(2-Chlorophenyl)-N-methyl-N-{3-sulfamoyl-4-[4-(trifluoromethyl)-1H-pyrazol-1-yl]phenyl}acetamide]	93	3440

SMILES	Emax [%]	IC50 [nM]
COc1ccccc1CC(=O)Nc1ccc(-n2cc(C(F)(F)F)cn2)c(S(N)(=O)=O)c1 [Example 112, 2-(2-Methoxyphenyl)-N-{3-sulfamoyl-4-[4-(trifluoromethyl)-1H-pyrazol-1-yl]phenyl}-acetamide]	62	263
CCOc1ccccc1CC(=O)Nc1ccc(-n2cc(F)cn2)c(S(N)(=O)=O)c1 [Example 156, 2-(2-Ethoxyphenyl)-N-[4-(4-fluoro-1H-pyrazol-1-yl)-3-sulfamoylphenyl]acetamide]	94	243
Cc1cc(-c2ccc(NC(=O)Cc3ccccc3Cl)cc2S(N)(=O)=O)cnn1 [Example 294, 2-(2-Chlorophenyl)-N-[4-(6-methylpyridazin-4-yl)-3-sulfamoylphenyl]acetamide]	75	174
Cc1ncsc1-c1ccc(NC(=O)Cc2ccccc2Cl)cc1S(N)(=O)=O [Example 504, 2-(2-Chlorophenyl)-N-[4-(4-methyl-1,3-thiazol-5-yl)-3-sulfamoylphenyl]acetamide]	98	33
NS(=O)(=O)c1cc(NC(=O)Cc2c(F)cc(F)cc2Cl)ccc1-n1cc(Cl)cn1 [Example 102, 2-(2-Chloro-4,6-difluorophenyl)-N-[4-(4-chloro-1H-pyrazol-1-yl)-3-sulfamoylphenyl]-acetamide]	80	99
Cn1nc(C(F)(F)F)cc1-c1ccc(NC(=O)Cc2ccccc2Cl)cc1S(N)(=O)=O [Example 353, 2-(2-Chlorophenyl)-N-{4-[1-methyl-3-(trifluoromethyl)-1H-pyrazol-5-yl]-3-sulfamoylphenyl}acetamide]	87	57
COc1ncc(-c2ccc(NC(=O)Cc3ccccc3Cl)cc2S(N)(=O)=O)s1 [Example 422, 2-(2-Chlorophenyl)-N-[4-(2-methoxy-1,3-thiazol-5-yl)-3-sulfamoylphenyl]acetamide]	90	46
N#Cc1cnn(-c2ccc(NC(=O)Cc3cccc(O)c3Cl)cc2S(N)(=O)=O)c1 [Example 554, 2-(2-Chloro-3-hydroxyphenyl)-N-[4-(4-cyano-1H-pyrazol-1-yl)-3-sulfamoylphenyl]acetamide]	83	383
NS(=O)(=O)c1cc(NC(=O)Cc2ccccc2F)ccc1-n1cc2ccccc2n1 [Example 397, 2-(2-Fluorophenyl)-N-[4-(2H-indazol-2-yl)-3-sulfamoylphenyl]acetamide]	43	> 25000
CC(C)c1cnn(-c2ccc(NC(=O)Cc3ccccc3F)cc2S(N)(=O)=O)c1 [Example 517, 2-(2-Fluorophenyl)-N-[4-(4-isopropyl-1H-pyrazol-1-yl)-3-sulfamoylphenyl]acetamide]	74	187
NS(=O)(=O)c1cc(NC(=O)Cc2ccccc2Cl)cnc1-c1cncc(C(F)(F)F)c1 [Example 305, 2-(2-Chlorophenyl)-N-[3-sulfamoyl-5′-(trifluoromethyl)-2,3′-bipyridin-5-yl]acetamide]	49	21
Cc1nn(C)cc1-c1ccc(NC(=O)Cc2ccccc2F)cc1S(N)(=O)=O [Example 375, N-[4-(1,3-Dimethyl-1H-pyrazol-4-yl)-3-sulfamoylphenyl]-2-(2-fluorophenyl)acetamide]	79	660
NS(=O)(=O)c1cc(NC(=O)Cc2ccc(C(F)(F)F)cc2Cl)c(C(F)(F)F)cc1-n1cc(F)cn1 [Example 538, 2-[2-Chloro-4-(trifluoromethyl)phenyl]-N-[4-(4-fluoro-1H-pyrazol-1-yl)-5-sulfamoyl-2-(trifluoromethyl)phenyl]acetamide]	83	3910
COc1ncc(-c2ccc(NC(=O)Cc3ccccc3Cl)cc2S(N)(=O)=O)cn1 [Example 285, 2-(2-Chlorophenyl)-N-[4-(2-methoxypyrimidin-5-yl)-3-sulfamoylphenyl]acetamide]	97	246
NS(=O)(=O)c1cc(NC(=O)Cc2cccc(Cl)c2)ccc1-n1cc(C(F)(F)F)cn1 [Example 120, 2-(3-Chlorophenyl)-N-{3-sulfamoyl-4-[4-(trifluoromethyl)-1H-pyrazol-1-yl]phenyl}-acetamide]	31	> 25000
C[C@@H]1CC[C@H](C)N1c1cnn(-c2ccc(NC(=O)Cc3ccccc3Cl)cc2S(N)(=O)=O)c1 [Example 511, 2-(2-Chlorophenyl)-N-(4-{4-[(cis)-2,5-dimethylpyrrolidin-1-yl]-1H-pyrazol-1-yl}-3-sulfamoylphenyl)acetamide]	60	343
